# Experimental data published in PMC3206302 (The Journal of General Physiology, 2011).
# Biological target: T1, TRPV3 (Mus musculus, UniProt Q8K424)
# T1 sequence (Q8K424 1-791): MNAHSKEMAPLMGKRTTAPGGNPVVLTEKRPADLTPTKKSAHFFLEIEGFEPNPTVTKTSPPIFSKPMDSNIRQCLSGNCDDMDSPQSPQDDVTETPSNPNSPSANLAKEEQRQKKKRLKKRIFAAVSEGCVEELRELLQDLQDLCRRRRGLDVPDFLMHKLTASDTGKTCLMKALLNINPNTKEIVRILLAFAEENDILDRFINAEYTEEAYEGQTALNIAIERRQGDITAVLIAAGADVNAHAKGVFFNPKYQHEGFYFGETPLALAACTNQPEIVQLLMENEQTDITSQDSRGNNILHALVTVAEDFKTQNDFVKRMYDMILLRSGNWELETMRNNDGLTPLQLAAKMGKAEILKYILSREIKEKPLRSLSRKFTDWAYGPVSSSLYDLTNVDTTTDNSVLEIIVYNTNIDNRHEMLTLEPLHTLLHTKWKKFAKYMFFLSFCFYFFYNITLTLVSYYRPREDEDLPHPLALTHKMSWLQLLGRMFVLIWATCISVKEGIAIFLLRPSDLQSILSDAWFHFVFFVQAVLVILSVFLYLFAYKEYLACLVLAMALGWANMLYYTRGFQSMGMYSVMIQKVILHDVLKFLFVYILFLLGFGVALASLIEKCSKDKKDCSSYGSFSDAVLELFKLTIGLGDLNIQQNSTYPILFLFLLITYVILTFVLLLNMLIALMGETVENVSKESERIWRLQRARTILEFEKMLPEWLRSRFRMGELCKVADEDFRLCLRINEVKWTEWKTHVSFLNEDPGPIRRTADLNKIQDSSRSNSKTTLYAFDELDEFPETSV
# Test: patch-clamp, reversible potentiation of 2-APB response in inside-out patches
# Format: cell-based
smiles,measurement,value
CC(C)=C[C@H]1C[C@H](C)[C@]2(CC[C@]3(C)C[C@H]4[C@H](C(=O)C[C@@]4(C)O)/C(C=O)=C\C[C@H]32)O1 [ophiobolin A],"patch-clamp, reversible potentiation of 2-APB response in inside-out patches",some CaM inhibitors such as ophiobolin A and W-7 may directly interfere with the gating of TRPV3
